Measured values reported in patent publication US4933336A, “Thiadiazinone, oxadiazinone and triazinone derivatives, and their use for treating acute or chronic heart disease” (Laboratoires Sobio S.A., priority 1987, dated 1990).
Read-outs that look alike come from different tables or passages of the source.

Legend:
[1] = test system: Canine cardiac myofibrillar Ca++-dependent Mg++ ATPase; assay: Measurement of myofibrillar Ca++-dependent Mg++ATPase activity (Ca++ sensitivity and maximal activity); format: biochemical, canine (dog); conditions: pH 7.0, 21° C.
Description: 1. Measurement of myofibrillar Ca++-dependent Mg++ATPase activity
the effect on myofibrillar Ca++sensitivity and on maximal activity of myofibrillar Ca++-dependent Mg++-ATPase was determined on canine cardiac myofibrils.
(a) Contractile protein preparation
Cardiac myofibrils free of membrane contaminants were prepared from left ventricular tissue of dog hearts using a modification of the method described by SOLARO et al, Biochem. Biophys. Acta, 245, 259-262, (1971). Before centrifugration, the heart homogenate was filtered through gauze.
After Triton X-100 treatments, the myofibrillar fraction was washed once by resuspension and centrifugation in 10 volumes of 1 mM EGTA, […], 30 mM imidazole, 2 mM MgCl2, pH 7.0. The pellet was then washed three times in 10 volumes of the same buffer without EGTA. Before the last centrifugation, the suspension of myofibrils was filtered through a stainless steel sieve with 0.25 mm meshes.
Myofibrils were kept in pellet overnight. Before use, the pellet was suspended in a small amount of buffer, the protein concentration was determined by the method of BRADFORD M., Anal. Biochem., 1976, 72, 248 and adjusted in order to have a concentration between 6 and 7 mg/ml.
(b) Myofibrillar ATPase activity
Ca++-dependent myfibrillar ATPase activity was determined at 21° C., pH 7.0, by measuring the rate of release of inorganic phosphate. All assays were performed within 24 hrs. of final purification, using the method described by SOLARO and RUEGG, CIRC. RES., 51, 290-4, (1982). Reaction mixtures (4 ml) containing 0.6-0.7 mg/ml myofibrillar protein, 80 mM KCl, 20 mM imidazole, 3 mM […], 1 mM EGTA, the desired amount of CaCl2, and the indicated concentration of drug or appropriate vehicle were preincubated for 6 min. prior to assay. The amount of CaCl2 was varied between 0 and 0.9 mM and the pCA (-log free Ca++) computed using 2.514×10^6 M^-1 as the apparent affinity of Ca++for EGTA at pH 7.0.
Reactions were initiated by the addition of Na2 ATP to final concentration of 2 mM. After an incubation period of 12 min., reactions were quenched by the addition of an equal volume of ice-cold 10% trichloroacetic acid. The protein was pelleted by centrifugation (2000 g, 15 min.) and Pi was assayed in the supernatant fraction using a modification of the method described by LANZETTA et al, Anal. Biochem., 100, 95-97, (1979).
The following solutions were prepared:
(1) 3.7% ammonium heptamolybdate in 0.12N H2 SO4
(2) 0.074% malachite green oxalate in 1% polyvinylic alcohol.
the colour reagent was prepared by mixing an equal volume of solution (1) and (2) 15 min. before the assay. For the assay, 1700 μl of 1% H2 SO4 and 1 ml of colour reagent were added to 100 μl of sample. Colour development occurred at room temperature for 30 min. and was quenched by the addition of 200 μl of 1M tri-potassium citrate. The absorbance was measured at 620 millimicrons.
The effect of each compound, tested at the indicated concentration, on the relation between pCa and percent activation was determined taking 100% for the maximum ATPase activity obtained with vehicle alone. The effect on Ca++ sensitivity was quantified by measuring the shift of the pCa giving 50% of the maximal control ATPase activity.
The effect on maximal ATPase activity was expressed as the percent change of ATPase activity for pCa=5.47.

[2] = test system: conscious instrumented Dog; assay: Cardiotonic activity in the conscious instrumented Dog; format: in vivo, dog (male Beagle); conditions: Canis lupus familiaris, po; for change in vivo at 0.3 mg/kg: 0.30 mg/kg p.o.; for change in vivo at 10 mg/kg: 10.00 mg/kg p.o.; for change in vivo at 0.01 mg/kg: 0.01 mg/kg p.o.; for change in vivo at 0.03 mg/kg: 0.03 mg/kg p.o.
Description: Cardiotonic activity in the conscious instrumented Dog
Male Beagle dogs, at least 2 years old, weighing 12 to 18 kg were anaesthetised with pentobarbital sodium (30 mg/kg i.v.). Respiration was maintained by a Harward pump, model 613a. The heart was exposed through a left thoracotomy and a pericardial cardle was formed. A high fidelity micromanometer (Koenigsberg P5 -P7) was inserted into left venitricular lumen through a stab incision at the apex. Wires were exteriorised to the back of the animals, placed into a size adapted jacket, and the chest closed. The experiments were conducted on the conscious dogs, 1 or 2 weeks after the surgery, when the animals had completely recovered.
Measured parameters were : first derivative of left ventricular pressure, (dP/dt, mmHg/sec); heart rate (HR, beats/min.). A control period recording of 90 min. was made with the dogs placed in a quiet room, the recordings being made outside. Compounds to be tested were administered orally in gelatin capsules and the parameters measured for 5 hrs. at least.
Results were expressed as the percentage of the maximum±SEM.

[3] = read-out: H.R. (heart rate), percentage of the maximum ± SEM
[4] = read-out: dP/dt Max (first derivative of left ventricular pressure), percentage of the maximum ± SEM

SMILES: CC1SC(=O)NN=C1c1ccc2c(c1)C1(CCCS1)C(=O)N2 (stereo not shown) [Example 21, 5'-(3,6-Dihydro-6-methyl-2-oxo-2H-1,3,4-thiadiazin-5-yl) -spiro-[thiolane-2,3'-[3H]-indol]-2'(1'H)-one]
- Max ATPase activity (%) (percent change of ATPase activity for pCa=5.47) ([1]; 1 × 10^-5 molar): -7 ± 2%
- Ca2+ sensitivity p CA50 (shift of the pCa giving 50% of the maximal control ATPase activity) ([1]; 1 × 10^-5 molar): 0.46 ± 0.04
- change in vivo at 0.3 mg/kg [2, 3]: 9%
- change in vivo at 0.3 mg/kg [2, 4]: 42%

SMILES: CSC1(C)C(=O)N(C(C)=O)c2ccc(C3=NNC(=O)SC3)cc21 (stereo not shown) [Example 9, 1-Acetyl-1,3-dihydro-5-(3,6-dihydro-2-oxo-2H-1,3,4-thiadiazin-5-yl)-3-methyl-3-methylthio-2H-indol-2-one]
- change in vivo at 10 mg/kg [2, 3]: 16%
- change in vivo at 10 mg/kg [2, 4]: 68%

SMILES: CC1C(=O)Nc2ccc(C3=NNC(=O)SC3)cc21 (stereo not shown) [Example 4, 1,3-Dihydro-5-(3,6-dihydro-2-oxo-2H-1,3,4-thiadiazin-5-yl)-3-methyl-2H-indol-2-one]
- Max ATPase activity (%) (percent change of ATPase activity for pCa=5.47) ([1]; 20 × 10^-5 molar): -6 ± 2%
- Ca2+ sensitivity p CA50 (shift of the pCa giving 50% of the maximal control ATPase activity) ([1]; 20 × 10^-5 molar): 0.15 ± 0.03

SMILES: CC1SC(=O)NN=C1c1ccc2c(c1)C1(SCCCS1)C(=O)N2 (stereo not shown) [Example 14, 5'-(3,6-Dihydro-6-methyl-2-oxo-2H-1,3,4-thiadiazin-5-yl) -spiro[1,3-dithiane-2,3'-[3H]indol]-2(1'H)-one]
- Max ATPase activity (%) (percent change of ATPase activity for pCa=5.47) ([1]; 3 × 10^-5 molar): +4 ± 1%
- Ca2+ sensitivity p CA50 (shift of the pCa giving 50% of the maximal control ATPase activity) ([1]; 3 × 10^-5 molar): 0.71 ± 0.09
- change in vivo at 0.3 mg/kg [2, 3]: 22%
- change in vivo at 0.3 mg/kg [2, 4]: 30%

SMILES: CC(=O)N1C(=O)C(C)(C)c2cc(C3=NNC(=O)SC3C)ccc21 (stereo not shown) [Example 7, 1-Acetyl-1,3-dihydro-5-(3,6-dihydro-6-methyl-2-oxo-H-1,3,4-thiadiazin-5-yl)3,3-dimethyl-2H-indol-2-one]
- Max ATPase activity (%) (percent change of ATPase activity for pCa=5.47) ([1]; 20 × 10^-5 molar): -2 ± 3%
- Ca2+ sensitivity p CA50 (shift of the pCa giving 50% of the maximal control ATPase activity) ([1]; 20 × 10^-5 molar): 0.37 ± 0.06
- change in vivo at 0.01 mg/kg [2, 3]: 9%
- change in vivo at 0.01 mg/kg [2, 4]: 41%

SMILES: CC1SC(=O)NN=C1c1ccc2c(c1)C(C)(C)C(=O)N2C(=O)c1ccc(N)cc1 (stereo not shown) [Example 42, 1,3-Dihydro-5-(3,6-dihydro-6-methyl-2-oxo-2H-1,3,4-thiadiazin-5-yl)-3,3-dimethyl-1-[(4-aminophenyl)carbonyl]-2H-indol-2-one]
- Max ATPase activity (%) (percent change of ATPase activity for pCa=5.47) ([1]; 3 × 10^-5 molar): -9 ± 2%
- Ca2+ sensitivity p CA50 (shift of the pCa giving 50% of the maximal control ATPase activity) ([1]; 3 × 10^-5 molar): 0.17 ± 0.03

SMILES: CC1SC(=O)NN=C1c1ccc2c(c1)C(C)(C)C(=O)N2 (stereo not shown) [Example 3]
- Max ATPase activity (%) (percent change of ATPase activity for pCa=5.47) ([1]; 20 × 10^-5 molar): -12 ± 2%
- Ca2+ sensitivity p CA50 (shift of the pCa giving 50% of the maximal control ATPase activity) ([1]; 20 × 10^-5 molar): 0.32 ± 0.06
- change in vivo at 0.03 mg/kg [2, 3]: 8%
- change in vivo at 0.03 mg/kg [2, 4]: 71%

SMILES: CC1SC(=O)NN=C1c1ccc2c(c1)C(C)(C)C(=O)N2C(=O)c1ccccc1 (stereo not shown) [Example 22, 1-Benzoyl-1,3-dihydro-5-(3,6-dihydro-6-methyl-2-oxo-2H-1,3,4-thiadiazin-5-yl)-3,3-dimethyl-2H-indol-2-one]
- change in vivo at 0.03 mg/kg [2, 3]: 14%
- change in vivo at 0.03 mg/kg [2, 4]: 56%

SMILES: CC1SC(=O)NN=C1c1ccc2c(c1)C(C)(C)C(=O)N2C(=O)Oc1ccccc1 (stereo not shown) [Example 40, Phenyl 2,3-dihydro-5-(3,6-dihydro-6-methyl-2-oxo-2H-1,3,4-thiadiazin-5-yl)-3,3-dimethyl-2-oxo-1H-indole-1-carboxylate]
- Max ATPase activity (%) (percent change of ATPase activity for pCa=5.47) ([1]; 3 × 10^-5 molar): +2 ± 2%
- Ca2+ sensitivity p CA50 (shift of the pCa giving 50% of the maximal control ATPase activity) ([1]; 3 × 10^-5 molar): 0.15 ± 0.01

SMILES: CSC1(SC)C(=O)Nc2ccc(C3=NNC(=O)SC3C)cc21 (stereo not shown) [Example 15, 1,3-Dihydro-5-(3,6-dihydro-6-methyl-2-oxo-2H-1,3,4-thiadiazin-5-yl)-3.3-di(methylthio)-2H-indol-2 one]
- Max ATPase activity (%) (percent change of ATPase activity for pCa=5.47) ([1]; 3 × 10^-5 molar): -4 ± 1%
- Ca2+ sensitivity p CA50 (shift of the pCa giving 50% of the maximal control ATPase activity) ([1]; 3 × 10^-5 molar): 0.37 ± 0.11

SMILES: CC1NC(=O)NN=C1c1ccc2c(c1)C(C)(C)C(=O)N2 (stereo not shown) [Example 37, 1,3-Dihydro-5-(1,2,3,6-tetrahydro-6-methyl-2-oxo-1,3,4-triazin-5-yl)-3,3-dimethyl-2H-indol-2-one]
- change in vivo at 0.03 mg/kg [2, 3]: 24%
- change in vivo at 0.03 mg/kg [2, 4]: 85%

SMILES: CC1SC(=O)NN=C1c1ccc2c(c1)C(=O)C(=O)N2 (stereo not shown) [Example 12, 5-(3,6-Dihydro-6-methyl-2-oxo-2H-1,3,4-thiadiazin-5-yl)-1H-indole-2,3-dione]
- change in vivo at 0.3 mg/kg [2, 3]: 10%
- change in vivo at 0.3 mg/kg [2, 4]: 51%

SMILES: CC1SC(=O)NN=C1c1ccc2c(c1)C1(CC1)C(=O)N2 (stereo not shown) [Example 16, 5'-(3,6-Dihydro-6-methyl-2-oxo-2H-1,3,4 thiadiazin-5-yl) -spiro[cyclopropane-1,3'-[3H]indol]-2'-(1'H)-one]
- change in vivo at 0.03 mg/kg [2, 3]: 21%
- change in vivo at 0.03 mg/kg [2, 4]: 105%

SMILES: CSC1C(=O)Nc2ccc(C3=NNC(=O)SC3C)cc21 (stereo not shown) [Example 10, 1,3-Dihydro-5-(3,6-dihydro-6-methyl-2-oxo-2H-1,3,4-thiadiazin-5-yl)-3-methylthio-2H-indol-2-one]
- Max ATPase activity (%) (percent change of ATPase activity for pCa=5.47) ([1]; 3 × 10^-5 molar): -9 ± 5%
- Ca2+ sensitivity p CA50 (shift of the pCa giving 50% of the maximal control ATPase activity) ([1]; 3 × 10^-5 molar): 0.36 ± 0.02

SMILES: CC1(C)C(=O)Nc2ccc(C3=NNC(=O)SC3)cc21 [Example 2, 1,3-Dihydro-5-(3,6-dihydro-2-oxo-2H-1,3,4-thiadiazin-5-yl)-3,3,-dimethyl-2H-indol-2-one]
- Max ATPase activity (%) (percent change of ATPase activity for pCa=5.47) ([1]; 20 × 10^-5 molar): -9 ± 2%
- Ca2+ sensitivity p CA50 (shift of the pCa giving 50% of the maximal control ATPase activity) ([1]; 20 × 10^-5 molar): 0.16 ± 0.07

SMILES: CC1SC(=O)NN=C1c1ccc2c(c1)C1(CCCC1)C(=O)N2 (stereo not shown) [Example 6, 5'-(3,6-Dihydro-6-methyl-2-oxo-2H-1,3,4-thiadiazin-5-yl)-spiro[cyclopentane-1,3'-[3H]-indol]-2'(1'H)one]
- change in vivo at 0.3 mg/kg [2, 3]: 7%
- change in vivo at 0.3 mg/kg [2, 4]: 33%
